What was measured:
[1] = test system: low-density lipoproteins (LDL); assay: Antioxidant activity towards low-density lipoproteins (LDL): Cu2+-induced lipid peroxidation, MDA determined by HPLC; assay type: biochemical; details: human LDL, peroxidation induced by copper (II) ions (40 µM), 4 h at 37°C, pH 7.4; conjugate at 5, 10, 20, 50, 100 and 200 µM; compared with carnosine
Procedure: In order to test the antioxidant activity of carnosine and the carbohydrate derivative, freeze-dried human LDL (Sigma) was used as lipid peroxidation target.
The MDA standard was obtained by hydrolysis of the bis-dimethylacetal derivative (Sigma) in 1% sulphuric acid.
The process of peroxidation of humane LDLs (Sigma), suspended in 20 mM ammonium acetate at pH 7.4, was triggered by the addition of Cu^2+ (40 µM) to the protein suspension, followed by a 4 h incubation at 37°C (Free Radic. Res. 35, 953, 2001; J. Agr. Food Chem. 45, 3362, 1997). The lipid peroxidation inhibiting effect of the trehalose-carnosine conjugate was evaluated by adding this molecule to the LDL-Cu^2+ system at increasing concentrations (5, 10, 20, 50, 100 and 200 µM). The peroxidation reaction was interrupted by adding an equal volume of acetonitrile, followed by double extraction with chloroform.
For the determination of MDA, the end product of lipid peroxidation, the aqueous extract was analysed by HPLC, using an analysis method reported in Anal. Biochem. 197, 191, 1991 (data reported in figure 1).

[2] = test system: carnosinase contained in rat brain homogenate; assay: Enzymatic hydrolysis by brain carnosinase (rat brain homogenate, histidine quantified fluorometrically with OPA); assay type: in vitro ADME; details: 20% rat brain homogenate, Tris buffer pH 8.1, 37°C for 2 h, compared with carnosine
Procedure: The breakdown of the carbohydrate conjugate of carnosine was measured by the following method: a 20% homogenate of rat brain was prepared with a 50 mM Tris buffer (Tris-(hydroxymethyl)-aminomethane) pH 8.1 containing 2 mM DTT (di-thio-threitol), and the mixture was centrifuged for 20 min at 19000 rpm. Part of the supernatant solution (192 µl) was incubated at 37°C for 2 h with the carnosine-trehalose conjugate, in a final volume of 300 µl. The reaction was interrupted by adding acetonitrile (300 µL), and the solution was subjected to double extraction with chloroform. The amount of histidine in the final solution was quantified fluorometrically after reacting with orthophthaldialdehyde OPA (Fluka), according to a method reported in Clin. Chim.

Compound: O=C(CCNC[C@H]1O[C@H](O[C@H]2O[C@H](CO)[C@@H](O)[C@H](O)[C@H]2O)[C@H](O)[C@@H](O)[C@@H]1O)N[C@@H](Cc1c[nH]cn1)C(=O)O [compound I, 6-(β-alanyl-L-histidine)-6-deoxy-α,α'-trehalose]
- antioxidant activity (lipid peroxidation inhibiting effect) [1]: dose-dependent antioxidant effect, which was significantly greater than that of carnosine
- resistance to enzymatic hydrolysis by carnosinase [2]: more resistant to the carnosinase contained in rat brain homogenate than carnosine
- resistance to enzymatic hydrolysis by carnosinase ([2]; listed as compound according to the invention): more resistant to enzymatic hydrolysis than carnosine
